Test results taken from patent US7771726B2, “Use of synthetic glycolipids as universal adjuvants for vaccines against cancer and infectious diseases” (New York University, priority 2003, dated 2010).

Columns and labels:
human NKT cells = test: stimulation of human NKT cells; assay type: cell-based
murine NKT cells = test: stimulation of murine NKT cells; assay type: cell-based
[1] = system: malaria antigen-specific CD8+ T-cell responses; test: adjuvant activity with suboptimal dose of recombinant adenovirus expressing a malarial antigen (FIG. 2); assay type: in vivo, mice
Excerpt: FIG. 2 depicts the adjuvant activity of CRONY 101, and the enhancement of a malaria-specific CD8+ T-cell response elicited by a recombinant adenovirus expressing a malaria antigen; and
In FIG. 2, the number of IFN secreting CD8+ T cells per million splenocytes is greater for CRONY 101 than for α-GalCer.
Thus, co-administration of α-C-GalCer to mice immunized with a suboptimal dose of a recombinant adenovirus expressing a malarial antigen enhanced protective antimalaria immunity and the level of malaria antigen-specific CD8^+ T-cell responses. Coadministration of 1 ng of CRONY 101 was compared to administration of 1 μg of α-GalCer.

melanoma metastases = melanoma metastases disease model, activity compared to α-GalCer; assay type: in vivo, mice; conditions: disease model requiring Th1-type responses; relative to α-GalCer
Excerpt: (§1) As reported in copending U.S. patent application Ser. No. 10/206,155, α-Galactosylceramide (α-GalCer) is a glycolipid ligand for natural killer T (NKT) cells, which respond to the glycolipid and produce both interferon (IFN)-γ and interleukin (IL)-4. […] It has now been discovered that synthetic C-glycoside analogs of α-GalCer of general formula (I) act as an NKT cell ligand and display 100-1000 fold higher activity against tumor and malaria, by preferentially inducing the production of Th1-type cytokines, IFN-γ and IL-12, in vivo.

[2] = system: Th1-type cytokines, IFN-γ and IL-12; Th2 cytokine, IL-4; test: cytokine production in vivo after administration to mice; conditions: as compared to α-GalCer
Excerpt: as §1

malaria = malaria disease model in mice, activity compared to α-GalCer; assay type: in vivo; conditions: disease model requiring Th1-type responses; relative to α-GalCer
Excerpt: as §1

[3] = system: Gag-specific CD8+ and CD4+ T cell response; test: adjuvant activity with DNA vaccine encoding an HIV Gag sequence (FIGS. 3A and 3B); assay type: in vivo; conditions: for Gag-specific CD8+ T cell response: FIG. 3A
Excerpt: FIGS. 3A and 3B depict the adjuvant activity of α-GalCer and CRONY 101, and the enhancement of a Gag-specific CD8+ T-cell response elicited by a DNA vaccine encoding an HIV-Gag sequence.
Further studies used a naked DNA plasmid encoding an HIV Gag sequence, as a vaccine.

[4] = system: HIV specific CD4+/CD8+ T-cell responses; test: adjuvant effects on DNA vaccination in mice (FIG. 1); assay type: in vivo
Excerpt: FIG. 1 depicts the adjuvant effects of α-GalCer on DNA vaccination in mice, and the enhancement of HIV-specific CD4+/CD8+ T-Cell responses;
FIG. 1 depicts the adjuvant effects of the α-GalCer on DNA vaccination in mice.

[5] = system: human CD1d-restricted lymphocytes that express a semi-invariant TCR; conditions: Kawano et al., 1997; cited from earlier work
[6] = system: mouse CD1d-restricted lymphocytes that express a semi-invariant TCR; conditions: Kawano et al., 1997; cited from earlier work
[7] = co-administration, mice immunized with suboptimal dose of recombinant adenovirus
[8] = DNA vaccine encoding an HIV Gag sequence

SMILES | stimulation of human NKT cells (human NKT cells) | stimulation of murine NKT cells (murine NKT cells) | increased number of malaria specific CD8+ cells ([1]; 1 ng of CRONY 101 as compared to 1 μg of α-GalCer) | number of IFN secreting CD8+ T cells per million splenocytes ([1]; FIG. 2, compared with α-GalCer) | adjuvant activity compared with α-GalCer ([1]; FIG. 2, recombinant adenovirus expressing a malaria antigen) | level of malaria antigen-specific CD8+ T-cell responses [1, 7] | protective antimalaria immunity [1, 7] | more potent activity than α-GalCer, melanoma metastases (melanoma metastases) [fold] | population of the Th2 cytokine, IL-4 [2] | production of the Th1-type cytokines [2] | more potent activity than α-GalCer, malaria (malaria) [fold] | Gag-specific CD8+ T cell response [3, 8] | Gag-specific CD4+ T cell response ([3]; FIG. 3B, DNA vaccine encoding a HIV-Gag sequence) | adjuvant activity compared with α-GalCer ([3]; FIGS. 3A and 3B, DNA vaccine encoding an HIV Gag sequence) | HIV specific CD4+/CD8+ T-cell responses [4] | concentrations at which recognized [5] | concentrations at which recognized [6]
CCCCCCCCCCCCCCCCCCCCCCCCCC(=O)N[C@@H](CCC1OC(CO)[C@H](O)C(O)[C@@H]1O)[C@H](O)[C@H](O)CCCCCCCCCCCCCC (stereo partly drawn) [CRONY 101, 3′S,4′S,5′R-3′-N-hexacosanoyl-4′,5′-dihydroxynonadecyl-α-C-D-galactopyranoside] | stimulate | stimulate | ⅚ | greater | more potent | enhanced | enhanced | 100 | decreased | prolonged production | 1000 | enhances | enhancing | more potent |  |  | 
CCCCCCCCCCCCCCCCCCCCCCCCCC(=O)N[C@@H](CO[C@H]1O[C@H](CO)[C@H](O)[C@H](O)[C@H]1O)[C@H](O)[C@H](O)CCCCCCCCCCCCCC [α-GalCer, α-galactosyl-ceramide, reference compound] | stimulate | stimulate |  |  |  |  |  |  |  |  |  | enhancement |  |  | enhancement | picomolar | picomolar
